According to patent US20150086509A1, “COMPOSITIONS AND METHODS FOR TREATING CANCER USING INTERFERON AND MAPK PATHWAY INHIBITOR” (The Trustees of Columbia University in the City of New York, priority 2013, published 2015):
“Also recorded” adds a separate entry of the source.

Experiments:
Format in all cases: cell-based, human
[1] = test system: melanoma cell lines (low- and high-pSTAT1); assay: Apoptosis assessed by TUNEL staining 72 h after treatment; settings: PD325901 50 nM
Description: (§1) Control samples were collected untreated at time of treatment.
Apoptosis was assessed by TUNEL staining Cells were plated in 6-well plates at 200K cells/well. […] TUNEL was performed using Invitrogen BrdU TUNEL kit.

[2] = test system: caspase pathway (caspases 9, 7 and 3); assay: Cleaved caspases by Western blot; settings: MEK inhibition
Description: as §1
(§2) Samples for protein analysis were lysed using RIPA buffer. Protein concentration was assessed using BCA staining Samples were then normalized to a fixed concentration and mixed with a 5× glycerol/SDS/DTT loading buffer. Lysates were run on gradient (4-12%) Bis-Tris gels. After incubation with horseradish peroxidase-conjugated secondary antibodies, proteins were detected using chemiluminescence.

[3] = test system: pSTAT1 (interferon-STAT1 pathway); assay: Western blots of pSTAT1 levels; settings: low- and high-pSTAT1 cell lines
Description: as §1, §2

[4] = test system: intrinsic apoptotic pathway (cytochrome C release); assay: Cytochrome C release from the mitochondria
Description: Cytochrome C release was assessed on fresh unfrozen pellets using Sucrose/Mannitol buffer (Majewski et al., 2004). Full details in the supplementary material.
Protocol for Cytochrome C release is taken, as is, from Majewski et al 2004. Lysis buffer: 20 mM Hepes-KOH, [pH 7.5], 210 mM sucrose, and 70 mM mannitol; 1.5 mM MgCl2, 10 mM […], protease inhibitor, and 1 mg digitonin/1 mL lysis buffer.
Cells are trypsinized, collected and spun down in 4C. They are then washed with PBS and spun down again. It is critical that cell pellets will be lysed immediately without freezing. Cells are gently suspended, without vortexing, in lysis buffer. Roughly double the cell pellet volume is used. They are incubated in 25C for 3-10 min, depending all cell line. Spun down at 4C for 20 minutes at highest speed. Supernatant contains cytoplasmic fraction.

[5] = test system: Ma1Me3M, a BRAF-V600E cell line; assay: Comparison of BRAF and MEK inhibition, transcriptional response (Illumina HumanHT-12 microarrays)
Description: We assessed expression fold change at 1 hour, 2, 4, and 8 hours following treatment using Illumina HumanHT-12 microarrays.
Illumina's probe pvalues were used to filter out probes. Probes with p-value>0.05 in more than half of the samples were removed. Then microarrays were normalized according to their 75% percentile values. The 2 control array were averaged, and treated samples were compared to the averaged control to assess fold change.

high pSTAT1 cell line = assay: Cytotoxicity of IFN by SubG1 percentage; settings: 48 hours after treatment
Description: The cytotoxicity of IFN was assessed in high pSTAT1 cell line, 48 hours after treatment using SubG1 percentage. […] Cells plated in 6 well plates, 200K cells/well, in 2 mL of growth media. […] 50K cells per well were plated in 6-well plates with 2 mL of media and treated 24 hours later. Cells were counted every 24 hours up to 72 hours. C. […] Cells were plated in 6 well plates, 200K cells/well with 2 mL media.

O=C(NOC[C@H](O)CO)c1ccc(F)c(F)c1Nc1ccc(I)cc1F [PD325901]
cytotoxic effect of MEK inhibition alone (TUNEL) ([1]; high-pSTAT1 cell lines): only mild response | cytotoxic effect of MEK inhibition alone (TUNEL) ([1]; high-pSTAT1 cell lines, listed as MEK inhibition): mostly resistant | cytotoxic effect of MEK inhibition alone (TUNEL) ([1]; low-pSTAT1 cell lines): sensitive | cleavage/activation of caspase 7 and 9 ([2]; high-pSTAT1 cell lines): not cleaved | cleavage/activation of caspase 7 and 9 ([2]; low pSTAT1 cell lines): cleaved and activated | pSTAT1 levels after treatment [3]: increase in pSTAT1 levels | time of cytochrome C release after treatment ([4]; MEKi): approx. 36 hours | cytochrome C release ([4]; MEKi alone, all cell lines): activates the intrinsic apoptotic pathway by cytochrome C release

CCCS(=O)(=O)Nc1ccc(F)c(C(=O)c2c[nH]c3ncc(Cl)cc23)c1F [PLX4720]
transcriptional response compared with the MEK inhibitor PD325901 ([5]; 2 uM PLX4720 vs 50 nM PD325901, BRAF-V600E cell line): almost identical transcriptional response | difference in gene expression fold change between MEKi and BRAFi treatments ([5]; Ma1Me3M, all time points (1, 2, 4, 8 hours)): ≤ 0.5 fold (on a log 2 scale)

IFNα
cytotoxic / apoptotic effect of IFN (SubG1 percentage) (high pSTAT1 cell line): weaker cytotoxic effect than IFNβ; also recorded: dose-dependent effects
